Here are results for five molecules from patent publication US4835100A (priority 1986, dated 1989).

Values joined by “and” are separate entries in the source; they are usually repeats but may differ in a detail not shown here. Equal values may be shown once.

One test deals with monoclonal antibody 4E1. The conditions noted are these: cited from earlier work.
The subject of test [1] is monoclonal antibody (2F5). The test is classed as binding, mouse.
Test [2] concerns Rabbit polyclonal anti-aflatoxin B1 antibody. As to conditions: cited from earlier work.
Test [3] deals with monoclonal antibody (1C6). It is filed as binding, mouse.
For test [4], the system named is monoclonal antibody of Groopman et al. As to conditions: cited from earlier work.
In test [5] the test system is monoclonal antibody (2F5). It is filed as binding, mouse. This is another data set of the same source.
Test [6] has as its system serum antibody of mouse 2. The test is classed as binding.
The test system of test [7] is serum antibody of mouse 1. The test is classed as binding.

On to `COc1cc2c(c3oc(=O)c4c(c13)CCC4=O)[C@@H]1CCO[C@@H]1O2` [Aflatoxin B2, aflatoxin B2], for which the “% Cross-reactivity 4” value in the test on monoclonal antibody 4E1 was 12.6%. The “% Cross-reactivity 2 (2F5)” value in test [1] worked out at 0.2%. In test [2], the “% Cross-reactivity Rabbit” value is reported as 131.6%. In addition, in test [3], the “% Cross-reactivity 3 (1C6)” value was 6.7%. For the same molecule, the “% Cross-reactivity 5” value in test [4] is on record as 100.0%. Further, in test [5], the “% Cross-reactivity 1 (2F5)” value is 4.0% and the “concentration for 50% inhibition of antibody binding in the ELISA” value (shortened to “concentration for 50% inhibition”) amounted to 70.8 ng/mL.

`COc1cc2c(c3oc(=O)c4c(c13)CCC4=O)[C@@H]1C=CO[C@@H]1O2` [Aflatoxin B1, aflatoxin B1]: the “% Cross-reactivity 4” value in the test on monoclonal antibody 4E1 is reported as 100.0%. Further, the “% Cross-reactivity 2 (2F5)” value in test [1] is on record as 100.0%. The “% Cross-reactivity Rabbit” value in test [2] is recorded as 100.0%. Moreover, the “% Cross-reactivity 3 (1C6)” value in test [3] is recorded as 100.00%. Besides, the “Percent Inhibition of serum antibody binding to solid phase” value in test [6] is 44.6 and 44.3 and 28.7 and 33.6 and 23.5. Besides, the “% Cross-reactivity 5” value in test [4] is 100.0%. The “Percent Inhibition of serum antibody binding to solid phase” value in test [7] is 0. Besides, in test [5], the “% Cross-reactivity 1 (2F5)” value amounted to 100.0% and the “concentration for 50% inhibition” value came to 2.8 ng/mL.

Take `COc1cc2c(c3oc(=O)c4c(c13)CCC4=O)[C@]1(O)C=CO[C@@H]1O2` [Aflatoxin M1, aflatoxin M1]: in the test with monoclonal antibody 4E1, the “% Cross-reactivity 4” value is 7.3%. For the same molecule, the “% Cross-reactivity 2 (2F5)” value in test [1] is given as 3.7%. The “% Cross-reactivity Rabbit” value in test [2] was 0%. The “% Cross-reactivity 3 (1C6)” value in test [3] turned out to be 3.9%. In addition, the “% Cross-reactivity 5” value in test [4] is 100.0%. In test [5], the “% Cross-reactivity 1 (2F5)” value was 4.5% and the “concentration for 50% inhibition” value came to 63.1 ng/mL.

With `COc1cc2c(c3oc(=O)c4c(c13)CCOC4=O)[C@@H]1C=CO[C@@H]1O2` [Aflatoxin G1, aflatoxin G1], in the test with monoclonal antibody 4E1, the “% Cross-reactivity 4” value is 14.3%. Besides, the “% Cross-reactivity 2 (2F5)” value in test [1] came to 26.6%. The “% Cross-reactivity Rabbit” value in test [2] is on record as 31.2%. Further, the “% Cross-reactivity 3 (1C6)” value in test [3] came out at 193.0%. Besides, in test [4], the “% Cross-reactivity 5” value was 5.0%. In test [5], the “% Cross-reactivity 1 (2F5)” value turned out to be 175.0% and the “concentration for 50% inhibition” value was 1.6 ng/mL.

In the case of `COc1cc2c(c3oc(=O)c4c(c13)CCOC4=O)[C@@H]1CCO[C@@H]1O2` [Aflatoxin G2, aflatoxin G2], in the test with monoclonal antibody 4E1, the “% Cross-reactivity 4” value is listed as 1.2%. Also, in test [1], the “% Cross-reactivity 2 (2F5)” value is below 0.01%. Besides, the “% Cross-reactivity Rabbit” value in test [2] was 1.3%. In addition, the “% Cross-reactivity 3 (1C6)” value in test [3] worked out at 2.3%. For the same molecule, the “% Cross-reactivity 5” value in test [4] was 3.6%. Moreover, in test [5], the “% Cross-reactivity 1 (2F5)” value is 5.0% and the “concentration for 50% inhibition” value came out at 56.2 ng/mL.
